Counter-ions that a name gives are not always drawn.
Assay: FT-Raman peak width (FWHM) at 705 cm^−1 as a measure of amorphous ivabradine hydrochloride
Assay type: physicochemical
Details: peak heights normalized at 705 cm^−1, broader peak = more amorphous content
Description: During characterization of the ivabradine hydrochloride chrystalline forms, Fourier Transform Raman Spectroscopy was used to evaluate different peak shapes. A Thermo Scientific Nicolet NXR FT-Raman equipped with liquid nitrogen cooled germanium (Ge) detector (Thermo Scientific) was used for FT-Raman signal collection. Peak broadening was most defined at a Raman shift of 705 cm^−1. The peak heights were normalized at 705 cm^−1 and the width of the peak was characterized as full width at half maximum (FWHM). Table 3 highlights the FWHM of pure tetrahydrate and amorphous drug substance with an approximate doubling of peak width for purely amorphous ivabradine hydrochloride. […] Modifying the process conditions as described herein produced FWHM values of 10.3 and 9.6 cm^−1 for the 5 mg and 7.5 mg drug products respectively showing the significant reduction in the amount of amorphous ivabradine hydrochloride present in the drug product.

FWHM (cm^−1) of 705 cm^−1 peak	Compound
8.4 cm⁻¹	COc1cc2c(cc1OC)CC(=O)N(CCCN(C)C[C@H]1Cc3cc(OC)c(OC)cc31)CC2 [Ivabradine hydrochloride tetrahydrate (pure)]
16.3 cm⁻¹	COc1cc2c(cc1OC)CC(=O)N(CCCN(C)C[C@H]1Cc3cc(OC)c(OC)cc31)CC2 [Ivabradine hydrochloride amorphous (pure)]

— patent publication US20230181472A1, “PROCESS OF MAKING IVABRADINE HYDROCHLORIDE DRUG PRODUCT” (Amgen Inc., priority 2018, published 2023)
